Each block holds one molecule with its values, some of them ahead of it. Calls of active or inactive are those of the source.
Assays:
Fatty acid synthase [1] = target: T1, Fatty acid synthase (Homo sapiens, UniProt P49327); assay: FAS thioesterase domain inhibitors, dose response, biochemical, kinetic fluorescence intensity (AID 624326); type: functional;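 further: rate of fluorescence rise from hydrolysis of a fluorogenic O-methyl fluorescein ester substrate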
Fatty acid synthase [2] = target: T1, Fatty acid synthase; assay: FAS thioesterase domain inhibitors, dose response, biochemical, endpoint fluorescence intensity, uHTS hits (AID 624327); type: functional;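 further: fluorescence from hydrolysis of an O-methyl fluorescein acyl ester substrate by the enzyme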
[3] = target: T2, Mannose-6-phosphate isomerase (Homo sapiens, UniProt P34949); assay: human PMI inhibitors, high substrate, primary screen, biochemical, fluorescence intensity, high mannose 6-phosphate (AID 1220)
T2 sequence (P34949 whole entry): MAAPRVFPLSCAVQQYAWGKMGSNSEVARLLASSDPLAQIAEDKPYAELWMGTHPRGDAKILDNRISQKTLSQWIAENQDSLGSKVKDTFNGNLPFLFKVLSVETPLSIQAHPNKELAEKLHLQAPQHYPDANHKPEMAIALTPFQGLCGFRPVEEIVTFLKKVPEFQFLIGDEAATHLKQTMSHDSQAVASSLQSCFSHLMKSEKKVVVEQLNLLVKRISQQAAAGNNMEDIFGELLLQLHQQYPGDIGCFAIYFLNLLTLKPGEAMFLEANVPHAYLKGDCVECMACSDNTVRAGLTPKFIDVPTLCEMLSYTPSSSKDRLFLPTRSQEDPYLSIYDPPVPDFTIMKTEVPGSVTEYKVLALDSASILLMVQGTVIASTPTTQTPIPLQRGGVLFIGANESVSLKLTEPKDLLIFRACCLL

Cytochrome P450 1A2 = target: T3, Cytochrome P450 1A2 (Homo sapiens, UniProt P05177);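 further: PubChem cytochrome P450 panel assay, CYP1A2 panel member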
T3 sequence (P05177 whole entry): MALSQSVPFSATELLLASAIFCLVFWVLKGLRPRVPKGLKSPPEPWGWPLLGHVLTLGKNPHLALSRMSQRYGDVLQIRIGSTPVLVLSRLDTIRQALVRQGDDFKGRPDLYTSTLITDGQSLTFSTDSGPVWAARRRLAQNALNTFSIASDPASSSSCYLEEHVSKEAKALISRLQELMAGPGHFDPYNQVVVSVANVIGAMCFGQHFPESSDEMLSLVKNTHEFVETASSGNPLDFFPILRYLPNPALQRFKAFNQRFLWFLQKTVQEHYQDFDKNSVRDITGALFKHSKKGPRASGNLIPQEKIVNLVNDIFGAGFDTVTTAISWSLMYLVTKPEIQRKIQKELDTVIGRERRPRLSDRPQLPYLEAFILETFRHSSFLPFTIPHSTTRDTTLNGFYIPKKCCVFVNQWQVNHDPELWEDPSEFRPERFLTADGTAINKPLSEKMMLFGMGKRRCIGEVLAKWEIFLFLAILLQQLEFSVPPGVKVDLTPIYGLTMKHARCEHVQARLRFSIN

[4] = inhibitors of HIV Env-driven cell fusion, dose response, cherry-pick (AID 652057); type: functional, cell-based
[5] = inhibitors of clade B AD8 Env fusion, dose response, cell-based, cherry-pick (AID 652062); type: functional;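 further: luciferase signal from cell-cell fusion driven by HIV-1 clade B AD8 Env; potency is for inhibitors of fusion seen as a drop in luminescence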
[6] = off-target signal loss in HeLa-CEM21 co-culture – HeLa F-luc CTL cells, cherry-picked, counter-screen for HIV-1 Env fusion inhibitor project, dose response (AID 652040); type: functional, cell-based;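 further: potency for signal decrease marking cytotoxic or nonspecific inhibition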
[7] = ZM109 Env clade C HIV-1 fusion inhibitors, dose response, HeLa effector, CEM target cells, luciferase, cherry-pick (AID 652058); type: functional, cell-based
[8] = Shn3 3'UTR reporter inhibitors, dose response, cell-based, Clone20 osteoblasts, firefly luciferase, cherry-picked (AID 624132); type: functional;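 further: firefly luciferase luminescence from reporter carrying the Shn3 3'UTR in osteoblasts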
[9] = control 3'UTR Renilla luciferase suppression, dose response, counter-screen for Shn3 inhibitor project, cell-based, Clone20-Shn3RL, cherry-picked (AID 624133); type: functional
Paired box protein Pax-8 = Paired box protein Pax-8 (Homo sapiens, UniProt Q06710); assay: inhibitors of PAX8-driven TPO luciferase reporter, dose response, RMG-I cells, cherry-pick (AID 687027); type: functional, cell-based;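 further: luciferase reporter driven by Pax8 target thyroperoxidase promoter measured by SteadyGlo luminescence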
Paired box protein Pax-8, sequence (Q06710 whole entry): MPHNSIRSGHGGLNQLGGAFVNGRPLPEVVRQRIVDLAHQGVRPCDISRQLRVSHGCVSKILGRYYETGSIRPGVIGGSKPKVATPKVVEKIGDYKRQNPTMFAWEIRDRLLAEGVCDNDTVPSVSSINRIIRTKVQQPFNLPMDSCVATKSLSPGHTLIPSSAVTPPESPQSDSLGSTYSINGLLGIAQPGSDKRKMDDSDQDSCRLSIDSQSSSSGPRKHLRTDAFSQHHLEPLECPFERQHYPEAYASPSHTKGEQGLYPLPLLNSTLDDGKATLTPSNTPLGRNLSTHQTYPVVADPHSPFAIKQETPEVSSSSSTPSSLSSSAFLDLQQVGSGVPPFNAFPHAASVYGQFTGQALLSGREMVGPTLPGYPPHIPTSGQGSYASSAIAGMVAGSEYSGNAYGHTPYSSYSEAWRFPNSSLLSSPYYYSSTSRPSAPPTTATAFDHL

[10] = cytotoxicity in OVCAR8 ovarian cancer cells, dose response, PAX8 project, cell-based, plate reader, dry powder samples (AID 743197); type: functional; conditions: OVCAR-8
[11] = non-specific cell cytotoxicity, dose response, cytotoxicity control for PAX8 inhibitor project, plate reader, dry powder samples (AID 743021); type: functional, cell-based
[12] = target: Induced myeloid leukemia cell differentiation protein Mcl-1 (Homo sapiens, UniProt Q07820); type: functional
Induced myeloid leukemia cell differentiation protein Mcl-1, sequence (Q07820 whole entry): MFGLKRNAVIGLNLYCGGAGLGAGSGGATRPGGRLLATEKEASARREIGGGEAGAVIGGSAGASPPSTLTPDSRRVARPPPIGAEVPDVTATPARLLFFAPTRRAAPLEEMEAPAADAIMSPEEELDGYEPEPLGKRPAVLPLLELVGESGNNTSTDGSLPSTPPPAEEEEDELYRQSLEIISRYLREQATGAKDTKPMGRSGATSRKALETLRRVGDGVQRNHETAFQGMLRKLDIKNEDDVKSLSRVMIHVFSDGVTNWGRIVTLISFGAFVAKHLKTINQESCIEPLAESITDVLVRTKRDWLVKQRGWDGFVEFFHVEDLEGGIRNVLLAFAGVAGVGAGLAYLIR

[13] = P. falciparum Dd2 growth inhibitors, dose response, SYBR Green, cherry-picked samples (AID 1159567); type: functional, cell-based
cells [14] = type: functional, cell-based
cells [15] = type: functional, cell-based; remark: listed apart in the source

T1 sequence (P49327 whole entry, the tested form may be a part): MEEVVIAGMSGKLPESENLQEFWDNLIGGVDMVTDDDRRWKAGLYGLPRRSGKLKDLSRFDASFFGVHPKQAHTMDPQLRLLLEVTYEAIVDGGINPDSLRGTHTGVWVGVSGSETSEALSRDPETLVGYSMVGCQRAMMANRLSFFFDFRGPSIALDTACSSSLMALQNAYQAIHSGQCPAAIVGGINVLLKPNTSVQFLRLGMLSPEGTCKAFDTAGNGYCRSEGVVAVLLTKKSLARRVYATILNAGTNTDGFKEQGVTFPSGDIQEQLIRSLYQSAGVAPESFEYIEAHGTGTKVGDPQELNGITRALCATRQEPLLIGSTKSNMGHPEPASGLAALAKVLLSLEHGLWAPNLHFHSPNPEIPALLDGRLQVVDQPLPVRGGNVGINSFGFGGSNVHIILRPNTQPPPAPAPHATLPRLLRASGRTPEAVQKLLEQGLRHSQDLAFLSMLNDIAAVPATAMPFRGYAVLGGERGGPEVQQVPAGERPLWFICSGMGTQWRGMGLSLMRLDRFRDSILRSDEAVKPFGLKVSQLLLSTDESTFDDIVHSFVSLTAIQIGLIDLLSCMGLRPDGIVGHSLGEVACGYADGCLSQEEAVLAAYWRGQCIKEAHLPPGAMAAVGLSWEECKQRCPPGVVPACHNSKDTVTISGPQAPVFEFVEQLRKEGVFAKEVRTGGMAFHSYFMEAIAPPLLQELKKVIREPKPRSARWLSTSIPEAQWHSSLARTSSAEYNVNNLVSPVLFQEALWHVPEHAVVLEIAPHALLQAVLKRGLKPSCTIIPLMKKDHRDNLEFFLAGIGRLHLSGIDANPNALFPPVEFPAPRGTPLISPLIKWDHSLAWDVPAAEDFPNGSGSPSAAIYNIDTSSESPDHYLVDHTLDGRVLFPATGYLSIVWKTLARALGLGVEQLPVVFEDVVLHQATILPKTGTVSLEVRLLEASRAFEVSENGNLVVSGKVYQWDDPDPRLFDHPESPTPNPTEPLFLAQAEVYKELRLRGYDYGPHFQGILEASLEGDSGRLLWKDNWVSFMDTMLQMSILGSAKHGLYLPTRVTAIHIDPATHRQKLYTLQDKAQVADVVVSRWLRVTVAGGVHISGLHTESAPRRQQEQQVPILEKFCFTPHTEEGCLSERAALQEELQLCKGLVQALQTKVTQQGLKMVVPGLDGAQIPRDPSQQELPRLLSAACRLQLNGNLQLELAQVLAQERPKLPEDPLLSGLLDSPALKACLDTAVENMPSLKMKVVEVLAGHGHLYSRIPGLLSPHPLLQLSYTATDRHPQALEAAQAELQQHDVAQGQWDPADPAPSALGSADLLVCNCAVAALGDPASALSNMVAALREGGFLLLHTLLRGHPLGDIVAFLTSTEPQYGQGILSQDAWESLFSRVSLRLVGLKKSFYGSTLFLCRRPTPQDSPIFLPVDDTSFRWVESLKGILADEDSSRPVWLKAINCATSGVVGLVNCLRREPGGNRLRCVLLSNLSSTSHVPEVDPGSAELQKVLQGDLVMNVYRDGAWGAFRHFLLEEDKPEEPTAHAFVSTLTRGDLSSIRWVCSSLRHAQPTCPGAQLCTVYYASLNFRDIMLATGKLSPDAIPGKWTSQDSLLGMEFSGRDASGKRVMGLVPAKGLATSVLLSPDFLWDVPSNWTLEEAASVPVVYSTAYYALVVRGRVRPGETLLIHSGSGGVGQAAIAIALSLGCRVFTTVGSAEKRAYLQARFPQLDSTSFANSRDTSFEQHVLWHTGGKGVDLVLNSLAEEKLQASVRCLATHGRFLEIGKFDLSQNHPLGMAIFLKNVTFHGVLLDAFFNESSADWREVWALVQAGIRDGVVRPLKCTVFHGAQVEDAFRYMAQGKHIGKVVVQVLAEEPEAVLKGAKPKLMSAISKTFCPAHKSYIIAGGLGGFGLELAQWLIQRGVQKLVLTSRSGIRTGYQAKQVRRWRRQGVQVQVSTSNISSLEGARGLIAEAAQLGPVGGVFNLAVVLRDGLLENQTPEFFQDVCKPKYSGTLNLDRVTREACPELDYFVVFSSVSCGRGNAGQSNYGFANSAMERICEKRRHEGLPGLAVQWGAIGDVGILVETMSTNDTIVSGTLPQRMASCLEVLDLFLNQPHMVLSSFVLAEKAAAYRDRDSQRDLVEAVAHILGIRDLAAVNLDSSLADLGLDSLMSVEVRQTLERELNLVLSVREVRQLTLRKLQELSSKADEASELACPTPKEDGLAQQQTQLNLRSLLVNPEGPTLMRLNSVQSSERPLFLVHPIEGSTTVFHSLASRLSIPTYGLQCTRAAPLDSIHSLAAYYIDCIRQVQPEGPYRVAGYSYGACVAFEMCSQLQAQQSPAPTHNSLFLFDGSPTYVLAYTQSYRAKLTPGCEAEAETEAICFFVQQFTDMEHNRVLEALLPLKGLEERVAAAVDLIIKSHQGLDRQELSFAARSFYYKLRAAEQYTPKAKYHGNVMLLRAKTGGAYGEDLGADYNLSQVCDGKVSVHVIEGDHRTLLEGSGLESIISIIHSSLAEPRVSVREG

IC50 (Fatty acid synthase [1]): 6.07 µM (active) | IC50 (Fatty acid synthase [2]): 17.1 µM (active)
SMILES: N#C/C(=C\c1c(N2CCC(C(N)=O)CC2)nc2ccccn2c1=O)S(=O)(=O)c1ccc(Cl)cc1

IC50 [3]: > 50 µM (not active) | AC50 (Cytochrome P450 1A2): 2.82 µM (inconclusive)
SMILES: CN(CCO)c1nc(N)c2c(N)nc3c(c2c1C#N)CC(=O)N3C1CCCC1

SMILES: CC1(Cc2ccc(Cl)cc2)C(=O)Nc2ccc(S(=O)(=O)NC3CCCCC3)cc21 (stereo not drawn)
AC50 [4]: 396 nM (active) | AC50 [5]: 0.674 µM (active) | AC50 [6]: 1.04 µM (active) | AC50 [7]: 1.12 µM (active)

SMILES: CCCCCCN1C[C@H](n2cc(-c3ccc(F)cc3)nn2)[C@@H](O)C[C@@H]1c1ccc(Cl)cc1
AC50 [8]: 10.3 µM (active) | AC50 [9]: 25.8 µM (active)

SMILES: COC(=O)C1(C(=O)OC)C[C@H](c2ccc(OC)cc2)N(Cc2ccccc2OC)[C@@H]1c1ccccc1
AC50 [4]: 1370 nM (active) | AC50 [5]: 8.22 µM (active) | AC50 [6]: 2.48 µM (active) | AC50 [7]: 1.58 µM (active)

SMILES: C[C@@H]1CCCCO[C@@H](CN(C)Cc2ccccc2)[C@H](C)CN([C@H](C)CO)C(=O)c2cc(NC(=O)Nc3ccc(C(F)(F)F)cc3)ccc2O1
AC50 (Paired box protein Pax-8): 4.61 µM (active) | AC50 [10]: > 70 µM (inactive)

SMILES: CCCNC(=O)Nc1ccc2c(c1)OC[C@@H](C)N(Cc1ccc(-c3ccccn3)cc1)C[C@@H](C)[C@H](OC)CN(C)C2=O
AC50 (Paired box protein Pax-8): 30.1 µM (active) | AC50 [11]: 41.7 µM (active)

IC50 [12]: 1.44 µM (active)
SMILES: CCN(/N=C/c1ccc(N(C)C)cc1)c1nc2ccccc2[nH]1

SMILES: CCCNC(=O)N1CCC2(CC1)CN(Cc1ccc(F)cc1)[C@@H](CO)c1[nH]c3cc(OC)ccc3c12
AC50 [13]: 5.11 µM (active)

SMILES: COc1ccc(CN2CC3(CN(C(=O)Cc4ccccc4)C3)c3c([nH]c4cc(OC)ccc34)[C@H]2CO)cc1
AC50 [13]: 6.52 µM (active)

SMILES: CCc1ccc(NC(=O)COC(=O)c2cccs2)cc1
EC50 (cells [14]): 79.4 µM (active) | EC50 (cells [15]): > 350 µM (not active)

Reference: ChEMBL document CHEMBL1201862, “PubChem BioAssay data set” (2004)
